A word on the pIC50: it is the IC50 on a negative log10 scale, so that one unit is a factor of ten.

Each structure is given as a SMILES string. pIC50: −log10 of the molar value.

Sequence of PD-L1 His protein / PD-1 Fc protein (Q9NZQ7 19-238 limits assumed): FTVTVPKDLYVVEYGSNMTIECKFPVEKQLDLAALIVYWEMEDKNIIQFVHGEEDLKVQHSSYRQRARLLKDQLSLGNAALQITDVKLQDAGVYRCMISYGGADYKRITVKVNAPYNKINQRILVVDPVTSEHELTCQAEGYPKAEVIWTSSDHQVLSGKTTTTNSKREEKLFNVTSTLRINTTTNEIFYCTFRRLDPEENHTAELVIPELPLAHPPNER

This assay concerns the target PD-L1 His protein / PD-1 Fc protein (Homo sapiens, UniProt Q9NZQ7). The assay is described as follows: HTRF Assay (PD-1/PD-L1 interaction). To be noted: PD-L1 His 6 nM, PD-1 Fc 6 nM. It counts as binding. In outline: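 HTRF: PD-L1 His (6 nM final), compound (3-fold dilutions, 20 μM to 0.001 μM final) and PD-1 Fc (6 nM final) preincubated 15 min at room temperature. Anti-human IgG-XL665 and anti-6HIS Tb cryptate (mixed at 6.7 nM and 0.35 nM) then added for 1 h at room temperature before reading.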
For orientation: Time-resolved FRET reads energy transfer from a long-lived donor to a nearby acceptor.
In the case of `COc1nc(-c2cccc(-c3cccc(-c4ccn5c(=O)c(CNC[C@@H]6CCC(=O)N6)ccc5c4)c3Cl)c2Cl)ccc1CNC[C@@H]1CCC(=O)N1` [Example 85, 8-(2,2′-Dichloro-3′-(6-methoxy-5-(((((S)-5-oxopyrrolidin-2-yl)methyl)amino)methyl)pyridin-2-yl)-[1,1′-biphenyl]-3-yl)-3-(((((S)-5-oxopyrrolidin-2-yl)methyl)amino)methyl)-4H-quinolizin-4-one], the negative logarithm of the IC50 (pIC50) is 8.60.

The compound `COc1nc(-c2cccc(-c3cccc(-c4ccn5c(=O)c(CNC[C@@H]6C[C@@H]6CO)cnc5c4)c3Cl)c2Cl)ccc1CNC[C@@H]1CCC(=O)N1` [Example 409, 8-(2,2′-Dichloro-3′-(6-methoxy-5-(((((S)-5-oxopyrrolidin-2-yl)methyl)amino)methyl)pyridin-2-yl)-[1,1′-biphenyl]-3-yl)-3-(((((1R,2S)-2-(hydroxymethyl)cyclopropyl)methyl)amino)methyl)-4H-pyrido[1,2-a]pyrimidin-4-one] gave a negative-log IC50 (pIC50) of 9.70. Compound `CNC(=O)C[C@H](O)CNCc1cnc2cc(-c3cccc(-c4cccc(-c5ccc(CNC[C@@H]6CCC(=O)N6)c(OC)n5)c4Cl)c3Cl)ccn2c1=O` [Example 292, (3S)-4-[[8-[2-Chloro-3-[2-chloro-3-[6-methoxy-5-[[[(2S)-5-oxopyrrolidin-2-yl]methylamino]methyl]-2-pyridyl]phenyl]phenyl]-4-oxo-pyrido[1,2-a]pyrimidin-3-yl]methylamino]-3-hydroxy-N-methyl-butanamide] had a pIC50 of 10.00.

`COc1nc(-c2cccc(-c3cccc(-c4cc5c(=O)n(C)c(CN6CC7(CC(O)C7)C6)nn5c4)c3Cl)c2Cl)ccc1CNC[C@@H]1CCC(=O)N1` [Example 468, 6-[2-Chloro-3-[2-chloro-3-[6-methoxy-5-[[[(2S)-5-oxopyrrolidin-2-yl]methylamino]methyl]-2-pyridyl]phenyl]phenyl]-2-[(6-hydroxy-2-azaspiro[3.3]heptan-2-yl)methyl]-3-methyl-pyrrolo[2,1-f][1,2,4]triazin-4-one]: the pIC50 is 8.15.

`COc1nc(-c2cccc(-c3cccc(-c4cc5c(=O)n(C)c(CNCCN6CCCC6=O)nn5c4)c3Cl)c2Cl)ccc1CNC[C@@H]1CCC(=O)N1` [Example 458, 6-[2-Chloro-3-[2-chloro-3-[6-methoxy-5-[[[(2S)-5-oxopyrrolidin-2-yl]methylamino]methyl]-2-pyridyl]phenyl]phenyl]-3-methyl-2-[[2-(2-oxopyrrolidin-1-yl)ethylamino]methyl]pyrrolo[2,1-f][1,2,4]triazin-4-one] gave a negative logarithm of the IC50 (pIC50) of 6.62. `COc1nc(-c2cccc(-c3cccc(-c4ccc5nc(CNC[C@@H]6CCC(=O)N6)cn5n4)c3Cl)c2Cl)ccc1CNC[C@@H]1CCC(=O)N1` [Example 338, (5S)-5-[[[6-[2-Chloro-3-[2-chloro-3-[2-[[[(2S)-5-oxopyrrolidin-2-yl]methylamino]methyl]imidazo[1,2-b]pyridazin-6-yl]phenyl]phenyl]-2-methoxy-3-pyridyl]methylamino]methyl]pyrrolidin-2-one] showed a pIC50 of 9.52. Compound `COc1cc(-c2cccc(-c3cccc(-c4ccn5c(=O)c(CNC[C@@H]6CCC(=O)N6)cnc5c4)c3Cl)c2Cl)ccc1CNC[C@@H]1CCC(=O)N1` [Example 90, 8-(2,2′-Dichloro-3″-methoxy-4″-(((((S)-5-oxopyrrolidin-2-yl)methyl)amino)methyl)-[1,1′:3′,1″-terphenyl]-3-yl)-3-(((((S)-5-oxopyrrolidin-2-yl)methyl)amino)methyl)-4H-pyrido[1,2-a]pyrimidin-4-one] gave a negative logarithm of the IC50 (pIC50) of 8.82. In turn, `CNC(=O)[C@H](C)N(C)Cc1cnc2cc(-c3cccc(-c4cccc(-c5ccc(CNC[C@@H]6CCC(=O)N6)c(OC)n5)c4Cl)c3Cl)ccn2c1=O` [Example 263, (S)-2-(((8-(2,2′-dichloro-3′-(6-methoxy-5-(((((S)-5-oxopyrrolidin-2-yl)methyl)amino)methyl)pyridin-2-yl)-[1,1′-biphenyl]-3-yl)-4-oxo-4H-pyrido[1,2-a]pyrimidin-3-yl)methyl)(methyl)amino)-N-methylpropanamide] had a pIC50 of 9.22. The same measure for `COc1nc(-c2cccc(-c3cccc(-c4cc(F)c(CNC[C@@H]5CCC(=O)N5)c(OC)n4)c3Cl)c2Cl)cc(F)c1CNC[C@@H]1CCC(=O)N1` [Example 236, (5S,5′S)-5,5′-(((((2,2′-dichloro-[1,1′-biphenyl]-3,3′-diyl)bis(4-fluoro-2-methoxypyridine-6,3-diyl))bis(methylene))bis(azanediyl))bis(methylene))bis(pyrrolidin-2-one)]: 8.92; for `CNc1nc(-c2cccc(-c3cccc(-c4ccn5c(=O)c(CNC[C@@H]6CCC(=O)N6)cnc5c4)c3C)c2Cl)ccc1CNC[C@@H]1CCC(=O)N1` [Example 73, 8-(2′-Chloro-2-methyl-3′-(6-(methylamino)-5-(((((S)-5-oxopyrrolidin-2-yl)methyl)amino)methyl)pyridin-2-yl)-[1,1′-biphenyl]-3-yl)-3-(((((S)-5-oxopyrrolidin-2-yl)methyl)amino)methyl)-4H-pyrido[1,2-a]pyrimidin-4-one]: 8.20; for `COc1c(CNC[C@@H]2CCC(=O)N2)ccc(-c2cccc(-c3cccc(-c4ccn5c(=O)c(CNC[C@@H]6CCC(=O)N6)cnc5c4)c3Cl)c2Cl)c1F` [Example 105, 8-[2-Chloro-3-[2-chloro-3-[2-fluoro-3-methoxy-4-[[[(2S)-5-oxopyrrolidin-2-yl]methylamino]methyl]phenyl]phenyl]phenyl]-3-[[[(2S)-5-oxopyrrolidin-2-yl]methylamino]methyl]pyrido[1,2-a]pyrimidin-4-one]: 8.23.

In the case of `COc1cc(-c2cccc(-c3cccc(-c4ccc(CNC[C@@H]5CCC(=O)N5)c(OC)n4)c3Cl)c2Cl)cc2c1CN(C[C@@H]1CCC(=O)N1)CC2` [Example 155, (S)-5-((6-(2,2′-Dichloro-3′-(6-methoxy-5-(((((S)-5-oxopyrrolidin-2-yl)methyl)amino)-methyl)pyridin-2-yl)-[1,1′-biphenyl]-3-yl)-8-methoxy-3,4-dihydroisoquinolin-2(1H)-yl)methyl)pyrrolidin-2-one], the pIC50 is 9.40. The same measure for `COc1nc(-c2cccc(-c3cccc(-c4ccn5c(=O)c(CN6C[C@@H](O)C[C@@H]6C(=O)O)cnc5c4)c3Cl)c2Cl)ccc1CNC[C@@H]1CCC(=O)N1` [Example 149, (2R,4S)-1-((8-(2,2′-Dichloro-3′-(6-methoxy-5-(((((S)-5-oxopyrrolidin-2-yl)methyl)amino)methyl)pyridin-2-yl)-[1,1′-biphenyl]-3-yl)-4-oxo-4H-pyrido[1,2-a]pyrimidin-3-yl)methyl)-4-hydroxypyrrolidine-2-carboxylic acid]: 9.52; for `COC(=O)C[C@H](O)CNCc1cnc2cc(-c3cccc(-c4cccc(-c5ccc(CNC[C@@H]6CCC(=O)N6)c(OC)n5)c4Cl)c3Cl)ccn2c1=O` [Example 220, Methyl (3S)-4-[[8-[2-chloro-3-[2-chloro-3-[6-methoxy-5-[[[(2S)-5-oxopyrrolidin-2-yl]methylamino]methyl]-2-pyridyl]phenyl]phenyl]-4-oxo-pyrido[1,2-a]pyrimidin-3-yl]methylamino]-3-hydroxy-butanoate]: 10.00.

Source of the values: patent publication US20230143612A1 (Arbutus Biopharma Corporation, priority 2020, published 2023).
